Measurements as given in patent US20050014767A1, “Benzoxazole, benzothiazole, and benzimidazole derivatives for the treatment of cancer and other diseases” (priority 2003, published 2005).
“Also recorded” adds a separate entry of the source.

Key:
[1] = system: phosphorylated JNK proteins; experiment: Western Blot assay for JNK protein phosphorylation in H292 lung cancer cells; assay type: cell-based, human; conditions: 2.5 micromolar, 16 hours, FIG. 15
Protocol: Phosphorylated JNK proteins can be specifically detected by employing an antibody specific to phosphorylated JNK, followed by Western Blotting analysis. […] In particular, the human lung cancer cell line H292, purchased from the American Type Culture Collection (ATCC) (Manassas, Va.), was tested for JNK-activation induced by compounds 1, 2, 11, and 12 described herein.
H292 cells were grown in RPMI medium 1640 containing 2 mM L-glutamine; 10 U/ml Pen-G; 10 mcg/ml Streptomycin and 10% FCS.
Cells were kept at 6% CO2 and 37° C. H292 cells were plated at 70% confluence (adherent growing cells covering 70% of culture plate surface area) in a 10 centimeter tissue culture dish in the medium indicated above.
Compounds 1, 2, 11, and 12 were applied to cultures of the H292 cells in the medium indicated above at a concentration of 2.5 micromolar. DMSO (dimethyl sulfoxide, Sigma, St. Louis, Mo.) was used as vehicle control, and never exceeded 0.1% final concentration. Treatment was for 16 hours.
At the end of incubation of the cultured cells with the test compounds, the medium was removed and the plated cells were washed twice with cold PBS (phosphate buffer saline). Excess PBS was aspirated away and the cells were lysed and scraped into sample buffer containing 50 mM HEPES pH 7.5 (buffer), 150 mM NaCl, 0.1% Tween 20 (a detergent, Biorad, Hercules, Calif.), 20 mM NaF, 10 mcg/mL aprotinin, 10 mcg/mL leupeptin. Samples were incubated on ice for 15 minutes and insoluble material was pelleted by microfugation. Protein concentrations for each sample were determined using BSA (Bovine serum albumin, Sigma, St Louis, Mo.) as a standard in a colorimetric protein quantification assay (BioRad, Hercules, Calif.).
100 mcg of each sample of cellular lysate were subjected to electrophoresis on 12% SDS-PAGE (polyacrylamide gel electrophoresis) gels (BioRad, Hercules, Calif.). Proteins were transferred to PVDF membrane. Membranes were probed with a monoclonal antibody recognizing phosphorylated JNK (Cell Signaling, Beverly, Mass.) followed by HRP(horseradish peroxidase)-conjugated goat-anti-mouse antibody (Santa Cruz Biotechnology, Santa Cruz, Calif.). Immunoreative bands were visualized by ECL (enhanced chemiluminescence, Amersham, Buckinghanshire, England) detection on film (Kodak, Rochester, N.Y.).

[2] = system: MDA-MB468 cells; experiment: MTT assay, breast cancer cell line; assay type: cell-based, human; conditions: 1x10^-8 to 1x10^-5 M, FIG. 8
Source text: (§1) Representative compounds of the invention were screened for anti-cancer activity by the procedures and methods described below. The following human cancer cell lines were used to detect anti-cancer activity. • The breast cancer cell line MDA-MB468 served to detect anti-breast cancer activity. • The prostate cancer cell line PC-3 was used to detect anti-prostate cancer activity • The non-small-cell lung cancer cell line A549 was used to detect anti-lung cancer activity • The pancreatic cancer cell line BX-PC-3 was used to detect anti-pancreatic cancer activity. • Cell lines were purchased from American Type Culture Collection (ATCC). Cell Culture conditions:
(§2) The cancer cell cultures were grown as recommended by the ATTC manuals. A549 cells and BX-PC-3 cells were grown in DME Dulbecco's modified Eagle's medium containing 4500 mg/L glucose; 4 mM L-glutamine; 10 U/ml Pen-G; 10 mcg/ml […] and 10% fetal calf serum (FCS). PC-3 and MDA-MB468 cells were grown in RPMI medium 1640 containing 2 mM L-glutamine; 10 U/ml Pen-G; 10 mcg/ml Streptomycin and 10% FCS. Cells were kept at 6% CO2 and 37° C. Cells were seeded on day zero in 96-well format tissue culture plates at suitable densities the day before starting treatment, in the media indicated above.
(§3) On day one, the compounds of the invention were added to the culture media of growing cells, containing 10% […]. The cell media contained the compounds of the invention at one of six concentrations: 1×10^−8, 5×10^−8, 1×10^−7, 5×10^−7, 1×10^−6, and 1×10^−5M. In control experiments, 0.1% DMSO was used as vehicle control, and never exceeded 0.1% final concentration. On day four the media was removed from the cells and replaced with fresh media containing the compounds of the invention and FCS at the appropriate concentrations.
(§4) On day five 10 μl of 5 mg/ml MTT dye was added to each well containing a cell culture. […] On day 6 the formazan crystals formed were solubilized and the resulting colored solution quantified using a scanning multiwell spectrophotometer at a wavelength of 595 nm. […]

[3] = system: PC-3 cells; experiment: MTT assay, prostate cancer cell line; assay type: cell-based, human; conditions: PC-3 prostate cancer cells; 1x10^-8 to 1x10^-5 M; FIG. 9
Source text: as §1, §2, §3, §4

[4] = system: A549 cells; experiment: MTT assay, non-small-cell lung cancer cell line; assay type: cell-based, human; conditions: 1x10^-8 to 1x10^-5 M, FIG. 7
Source text: as §1, §2, §3
On day five 10 μl of 5 mg/ml MTT dye was added to each well containing a cell culture. The MTT assay is based on the dehydrogenase activity in active mitochondria for cleavage of the yellow tetrazolium salt MTT to produce purple formazan crystals. This conversion of MTT only occurs in living cells with intact/functional mitochondria. After addition of MTT, the cells were incubated for additional 4 hours at 6% CO2 and 37° C. Reaction was then stopped by adding 100 μl/well of a solubilization solution consisting of 10% Sodium Dodecyl Sulfate (SDS) and 10 mM HCl. On day 6 the formazan crystals formed were solubilized and the resulting colored solution quantified using a scanning multiwell spectrophotometer at a wavelength of 595 nm.
The procedure of Example 21 was employed to measure the anti-cancer activity of compounds 1 & 2 of the invention and compare them with equivalent activity tests for Comparative Compound 4, whose synthesis is given in Example 4. […]

[5] = system: BX-PC-3 cells; experiment: MTT assay, pancreatic cancer cell line; assay type: cell-based, human; conditions: BX-PC-3 pancreatic cancer cells; 1x10^-8 to 1x10^-5 M; FIG. 10
Source text: as §1, §2, §3, §4

SMILES	phosphorylation of JNK proteins (phospho-JNK bands) [1]	anti-cancer activity (MTT) [2]	anti-cancer activity (MTT) [3]	anti-cancer activity (MTT) [4]	anti-cancer activity (MTT) [5]	melting point [°C]
O=C1NC(=O)/C(=C/c2ccc(-c3cc(C4CCCCC4)c4ocnc4c3)nc2)S1 [Compound 12, 5-[6-(7-Cyclohexyl-benzoxazol-5-yl)-pyridin-3-ylmethylene]-thiazolidine-2,4-dione]	results in the production of phosphorylated JNK proteins; also recorded: activates the phosphorylation of JNK proteins, though perhaps less potently than compound 1 or 2	–	–	–	–	–
Nc1nc2cc(-c3ccc(/C=C4\SC(=O)NC4=O)cn3)cc(C34CC5CC(CC(C5)C3)C4)c2o1 [Compound 14, 5-[6-(7-Adamantan-1-yl-2-amino-benzoxazol-5-yl)-pyridin-3-ylmethylene]-thiazolidine-2,4-dione]	–	consistent and potent anti-cancer activity at low concentrations	consistent and potent anti-cancer activity at low concentrations	consistent and potent anti-cancer activity at low concentrations	consistent and potent anti-cancer activity at low concentrations	–
O=C1NC(=O)/C(=C/c2ccc(-c3cc(C45CC6CC(CC(C6)C4)C5)c4ocnc4c3)nc2)S1 [Compound 2, 5-[6-(7-Adamantan-1-yl-benzoxazol-5-yl)-pyridin-3-ylmethylene]-thiazolidine-2,4-dione]	results in the production of phosphorylated JNK proteins; also recorded: induced the phosphorylation of JNK proteins; also recorded: potent activators of the phosphorylation of JNK proteins	consistent and potent anti-cancer activity at low concentrations	consistent and potent anti-cancer activity at low concentrations	consistent and potent anti-cancer activity at low concentrations	consistent and potent anti-cancer activity at low concentrations	–
Cc1nc2cc(-c3ccc(/C=C4\SC(=O)NC4=O)cn3)cc(C34CC5CC(CC(C5)C3)C4)c2o1 [Compound 1, 5-[6-(7-Adamantan-1-yl-2-methyl-benzoxazol-5-yl)-pyridin-3-ylmethylene]-thiazolidine-2,4-dione]	results in the production of phosphorylated JNK proteins; also recorded: induced the phosphorylation of JNK proteins; also recorded: potent activators of the phosphorylation of JNK proteins	consistent and potent anti-cancer activity at low concentrations	consistent and potent anti-cancer activity at low concentrations	consistent and potent anti-cancer activity at low concentrations	consistent and potent anti-cancer activity at low concentrations	–
Cc1nc2cc(-c3ccc(/C=C4\SC(=O)NC4=O)cn3)cc(C3CCCCC3)c2o1 [Compound 11, 5-[6-(7-Cyclohexyl-2-methyl-benzoxazol-5-yl)-pyridin-3-ylmethylene]-thiazolidine-2,4-dione]	only weakly induced the phosphorylation of JNK proteins	–	–	only relatively weak activity	–	314 to 316
